Key:
large crabgrass = assay: Test B pre-/postemergence herbicide test; assay type: in vivo, Digitaria sanguinalis
Method in brief: (§1)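 Response was scored visually 13 to 15 days after treatment against untreated greenhouse controls, 0 meaning no effect and 100 complete control. Formulations (solvent mixture plus surfactant) went onto soil after planting, onto foliage of 1- to 4-leaf plants, and onto 2-leaf plants in a flooded paddy set including rice and barnyardgrass.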

cocklebur = assay: Test B pre-/postemergence herbicide test; assay type: in vivo, Xanthium strumarium
Method in brief: (§2)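 Seeds were planted and treated preemergence with compounds formulated in a non-phytotoxic solvent mixture containing surfactant, while plants at the 1- to 4-leaf stage (2 to 18 cm) received postemergence sprays. Flooded paddy plants were grown to the 2-leaf stage. After 13 to 15 days in a greenhouse, injury was visually rated 0–100 against untreated controls.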

blackgrass = assay: Test B postemergence herbicide test; assay type: in vivo, Alopecurus myosuroides
Method in brief: (§3)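 Postemergence plants were sprayed with formulated test chemicals at 2 to 18 cm height (1- to 4-leaf stage); paddy species were grown to the 2-leaf stage. After 13 to 15 days in a greenhouse, injury was rated visually against untreated controls on a 0–100 scale (0 = no effect, 100 = complete control).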

[1] = tested on: small flower umbrella sedge; assay: Test B flooded paddy test; assay type: in vivo, Cyperus difformis; details: 1000 g ai/ha, scale 0 to 100 (0 no effect, 100 complete control)
Method in brief: as §3

barnyardgrass [2] = assay: Test B pre-/postemergence herbicide test; assay type: in vivo, Echinochloa crus-galli
Method in brief: as §2

ducksalad = assay: Test B flooded paddy test; assay type: in vivo, Heteranthera limosa; details: 1000 g ai/ha, scale 0 to 100 (0 no effect, 100 complete control)
Method in brief: as §3

lambsquarters = assay: Test B pre-/postemergence herbicide test; assay type: in vivo, Chenopodium album
Method in brief: as §1

barnyardgrass [3] = assay: Test B flooded paddy test; assay type: in vivo, Echinochloa crus-galli; details: 1000 g ai/ha, scale 0 to 100 (0 no effect, 100 complete control)
Method in brief: as §3

Surinam grass = assay: Test B pre-/postemergence herbicide test; assay type: in vivo, Urochloa decumbens
Method in brief: as §1

wild oat = assay: Test B postemergence herbicide test; assay type: in vivo, Avena fatua
Method in brief: (§4)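 Scale 0–100: zero equals no visible effect, 100 complete control, judged by eye relative to controls. Timing: 13 to 15 days in greenhouse post-treatment. Growth stage at spraying: two leaves (paddy) or one to four leaves, 2–18 cm (postemergence).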

corn = assay: Test B pre-/postemergence herbicide test; assay type: in vivo, Zea mays
Method in brief: as §1

velvetleaf = assay: Test B pre-/postemergence herbicide test; assay type: in vivo, Abutilon theophrasti
Method in brief: as §1

wheat = assay: Test B postemergence herbicide test; assay type: in vivo, Triticum aestivum; set-up: key to Wheat plant response rating: 0 = no effect, 100 = complete control
Method in brief: as §4

morningglory = assay: Test B pre-/postemergence herbicide test; assay type: in vivo, Ipomoea coccinea
Method in brief: as §2

rice = assay: Test B flooded paddy test; assay type: in vivo, Oryza sativa; details: 1000 g ai/ha, scale 0 to 100 (0 no effect, 100 complete control)
Method in brief: as §3

[4] = Postemergence, 500 g ai/ha, visual rating after 13 to 15 days, scale 0 (no effect) to 100 (complete control)
[5] = Preemergence, 500 g ai/ha, scale 0 to 100
[6] = postemergence, 125 g ai/ha, visual rating, scale 0 (no effect) to 100 (complete control)
[7] = preemergence, 125 g ai/ha, 0 to 100 scale, 0 is no effect, 100 is complete control
[8] = 500 g ai/ha, visual rating 0-100, 0 no effect, 100 complete control, preemergence
[9] = postemergence, 500 g ai/ha, visual rating, scale 0 (no effect) to 100 (complete control)
[10] = 125 g ai/ha, 0 is no effect, 100 is complete control, preemergence
[11] = Postemergence, 500 g ai/ha, scale 0 (no effect) to 100 (complete control)
[12] = postemergence, 125 g ai/ha, scale 0 to 100

For `CCn1nc(C(C)(C)C)cc1C(=O)Nc1cccc(C(=O)NCC(C)C)c1` [Compound 61], the “Plant response rating, Crabgrass, Large” value (large crabgrass; [4]) was 30, the “Crabgrass, Large plant response rating” value (large crabgrass; [5]) was 100 and the “Crabgrass, Large plant response rating” value (large crabgrass; [6]) was 20. For the same compound, the “Plant response rating, Crabgrass, Large” value (large crabgrass; [7]) was 50, the “Plant response rating, Cocklebur” value (cocklebur; [4]) was 100 and the “Cocklebur plant response rating” value (cocklebur; [5]) was 0. For the same compound, the “Cocklebur plant response rating” value (cocklebur; [6]) was 60, the “Plant response rating, Cocklebur” value (cocklebur; [7]) was 0 and the “Plant response rating, Blackgrass” value (blackgrass; [4]) was 0. The “Blackgrass plant response rating” value (blackgrass; [6]) was 0, the “Sedge, Umbrella plant response rating” value ([1]; visual rating, 13 to 15 days) was 60 and the “Plant response rating, Barnyardgrass” value (barnyardgrass [2]; [4]) was 30. For the same compound, the “Barnyardgrass plant response rating” value (barnyardgrass [2]; [5]) was 60, the “Barnyardgrass plant response rating” value (barnyardgrass [2]; [6]) was 20 and the “Plant response rating, Barnyardgrass” value (barnyardgrass [2]; [7]) was 20. The “Ducksalad plant response rating” value (ducksalad; visual rating, 13 to 15 days) was 80, the “Plant response rating, Lambsquarters” value (lambsquarters; [4]) was 100 and the “Lambsquarters plant response rating” value (lambsquarters; [6]) was 90. For the same compound, the “Plant response rating, Lambsquarters” value (lambsquarters; [7]) was 100, the “Barnyardgrass plant response rating” value (barnyardgrass [3]; visual rating, 13 to 15 days) was 30 and the “Plant response rating, Surinam Grass” value (Surinam grass; [4]) was 30. The “Surinam Grass plant response rating” value (Surinam grass; [6]) was 20, the “Plant response rating, Surinam Grass” value (Surinam grass; [7]) was 10 and the “Plant response rating, Oat, Wild” value (wild oat; [4]) was 20. The “Oat, Wild plant response rating” value (wild oat; [6]) was 20, the “Plant response rating, Corn” value (corn; [4]) was 40 and the “Corn plant response rating” value (corn; [5]) was 10. The “Corn plant response rating” value (corn; [6]) was 20, the “Plant response rating, Corn” value (corn; [7]) was 0 and the “Plant response rating, Velvetleaf” value (velvetleaf; [4]) was 70. For the same compound, the “Velvetleaf plant response rating” value (velvetleaf; [6]) was 30, the “Plant response rating, Velvetleaf” value (velvetleaf; [7]) was 70 and the “Plant response rating, Wheat” value (wheat; [4]) was 10. For the same compound, the “Wheat plant response rating” value (wheat; [6]) was 10, the “Plant response rating, Morningglory” value (morningglory; [4]) was 50 and the “Morningglory plant response rating” value (morningglory; [6]) was 20. The “Rice plant response rating” value (rice; visual rating, 13 to 15 days) was 0.
`CCN(CC)C(=O)c1ccnc(NC(=O)c2cc(C(C)(C)C)nn2CC)c1` [Compound 153] was tested, and the “Plant response rating, Crabgrass, Large” value (large crabgrass; [8]) was 80, the “Crabgrass, Large plant response rating” value (large crabgrass; [6]) was 10 and the “Crabgrass, Large plant response rating” value (large crabgrass; [9]) was 20. The “Plant response rating, Crabgrass, Large” value (large crabgrass; [7]) was 50, the “Plant response rating, Cocklebur” value (cocklebur; [8]) was 0 and the “Cocklebur plant response rating” value (cocklebur; [6]) was 50. For the same compound, the “Cocklebur plant response rating” value (cocklebur; [9]) was 100, the “Plant response rating, Cocklebur” value (cocklebur; [7]) was 0 and the “Blackgrass plant response rating” value (blackgrass; [6]) was 10. The “Blackgrass plant response rating” value (blackgrass; [9]) was 10, the “Sedge, Umbrella plant response rating” value ([1]; visual rating, 13 to 15 days) was 70 and the “Plant response rating, Barnyardgrass” value (barnyardgrass [2]; [8]) was 90. For the same compound, the “Barnyardgrass plant response rating” value (barnyardgrass [2]; [6]) was 30, the “Barnyardgrass plant response rating” value (barnyardgrass [2]; [9]) was 30 and the “Plant response rating, Barnyardgrass” value (barnyardgrass [2]; [7]) was 60. For the same compound, the “Ducksalad plant response rating” value (ducksalad; visual rating, 13 to 15 days) was 80, the “Plant response rating, Lambsquarters” value (lambsquarters; [8]) was 100 and the “Lambsquarters plant response rating” value (lambsquarters; [6]) was 80. For the same compound, the “Lambsquarters plant response rating” value (lambsquarters; [9]) was 80, the “Plant response rating, Lambsquarters” value (lambsquarters; [7]) was 100 and the “Barnyardgrass plant response rating” value (barnyardgrass [3]; visual rating, 13 to 15 days) was 40. The “Plant response rating, Surinam Grass” value (Surinam grass; [8]) was 70, the “Surinam Grass plant response rating” value (Surinam grass; [6]) was 30 and the “Surinam Grass plant response rating” value (Surinam grass; [9]) was 30. For the same compound, the “Plant response rating, Surinam Grass” value (Surinam grass; [7]) was 10, the “Oat, Wild plant response rating” value (wild oat; [6]) was 20 and the “Oat, Wild plant response rating” value (wild oat; [9]) was 50. The “Plant response rating, Corn” value (corn; [8]) was 20, the “Corn plant response rating” value (corn; [6]) was 10 and the “Corn plant response rating” value (corn; [9]) was 20. For the same compound, the “Plant response rating, Corn” value (corn; [7]) was 0, the “Plant response rating, Velvetleaf” value (velvetleaf; [8]) was 100 and the “Velvetleaf plant response rating” value (velvetleaf; [6]) was 50. The “Velvetleaf plant response rating” value (velvetleaf; [9]) was 60, the “Plant response rating, Velvetleaf” value (velvetleaf; [7]) was 40 and the “Wheat plant response rating” value (wheat; [9]) was 10. The “Plant response rating, Morningglory” value (morningglory; [8]) was 10, the “Morningglory plant response rating” value (morningglory; [6]) was 10 and the “Morningglory plant response rating” value (morningglory; [9]) was 70. The “Plant response rating, Morningglory” value (morningglory; [7]) was 0 and the “Rice plant response rating” value (rice; visual rating, 13 to 15 days) was 60.
In the case of `CCNC(=S)c1cccc(NC(=O)c2nn(C(C)(C)C)nc2C)c1` [Compound 420], the “Plant response rating (0 to 100 scale), Crabgrass, Large” value (large crabgrass; [10]) is reported as 100, the “Crabgrass, Large plant response rating” value (large crabgrass; [11]) is reported as 40 and the “Crabgrass, Large plant response rating” value (large crabgrass; [12]) is reported as 30. For the same compound, the “Plant response rating (0 to 100 scale), Cocklebur” value (cocklebur; [10]) was 0, the “Cocklebur plant response rating” value (cocklebur; [11]) was 40 and the “Cocklebur plant response rating” value (cocklebur; [12]) was 10. The “Blackgrass plant response rating” value (blackgrass; [11]) was 40, the “Blackgrass plant response rating” value (blackgrass; [12]) was 10 and the “Sedge, Umbrella plant response rating” value [1] was 70. For the same compound, the “Plant response rating (0 to 100 scale), Barnyardgrass” value (barnyardgrass [2]; [10]) was 90, the “Barnyardgrass plant response rating” value (barnyardgrass [2]; Postemergence, 125 g ai/ha, scale 0 (no effect) to 100 (complete control)) was 20 and the “Barnyardgrass plant response rating” value (barnyardgrass [2]; [11]) was 50. The “Ducksalad plant response rating” value (ducksalad) was 80, the “Plant response rating (0 to 100 scale), Lambsquarters” value (lambsquarters; [10]) was 100 and the “Lambsquarters plant response rating” value (lambsquarters; [11]) was 90. The “Lambsquarters plant response rating” value (lambsquarters; [12]) was 70, the “Barnyardgrass plant response rating” value (barnyardgrass [3]) was 90 and the “Plant response rating (0 to 100 scale), Surinam Grass” value (Surinam grass; [10]) was 70. The “Surinam Grass plant response rating” value (Surinam grass; [11]) was 30, the “Surinam Grass plant response rating” value (Surinam grass; [12]) was 20 and the “Oat, Wild plant response rating” value (wild oat; [11]) was 30. The “Oat, Wild plant response rating” value (wild oat; [12]) was 20, the “Plant response rating (0 to 100 scale), Corn” value (corn; [10]) was 70 and the “Corn plant response rating” value (corn; [11]) was 20. The “Corn plant response rating” value (corn; [12]) was 20, the “Plant response rating (0 to 100 scale), Velvetleaf” value (velvetleaf; [10]) was 50 and the “Velvetleaf plant response rating” value (velvetleaf; [11]) was 30. The “Velvetleaf plant response rating” value (velvetleaf; [12]) was 20, the “Wheat plant response rating” value (wheat; 500 g ai/ha, scale 0 to 100, 0 no effect, 100 complete control, preemergence) was 100 and the “Wheat plant response rating” value (wheat; [11]) was 20. The “Wheat plant response rating” value (wheat; [12]) was 10, the “Plant response rating (0 to 100 scale), Morningglory” value (morningglory; [10]) was 50 and the “Morningglory plant response rating” value (morningglory; [11]) was 90. For the same compound, the “Morningglory plant response rating” value (morningglory; [12]) was 80 and the “Rice plant response rating” value (rice) was 60.

Source: US20060069132A1, “Azolecarboxamide herbicides” (priority 2004, published 2006)
